Patent US10155769B2, “Fused azaheterocyclic compounds and their use as AMPA receptor modulators” (Janssen Pharmaceutica NV, priority 2016, dated 2018)

target: GluA1o-γ8 (Homo sapiens (Human), UniProt P42261+Q8WXS5); assay: Calcium flux assay (FLIPR), inhibition of TARP γ8 dependent AMPA receptor activity; type: cell-based; settings: HEK293 cells stably expressing GRIA1o-CACNG8 fusion construct; calcium flux following 15 μM glutamate; negative log of IC50 in molar
Text: This assay was used to test compounds for their ability to inhibit TARP γ8 dependent AMPA receptor activity. The AMPA receptor is a non-selective cation channel activated by glutamate. Ionotropic glutamate receptors normally desensitize too rapidly to allow detectable calcium influx in a FLIPR assay (Strange et al. (2006). “Functional characterisation of homomeric ionotropic glutamate receptors GluR1-GluR6 in a fluorescence-based high throughput screening assay.” Comb Chem High Throughput Screen 9(2): 147-158). But, this desensitization is incomplete, and a substantial steady-state current remains in the sustained presence of glutamate (Cho et al. (2007). “Two families of TARP isoforms that have distinct effects on the kinetic properties of AMPA receptors and synaptic currents.” Neuron 55(6): 890-904).
An in vitro assay was used to determine the potency of test compounds as inhibitors of the glutamate response of the channel formed by GluA1o-γ8. To ensure a 1:1 stoichiometry of GluA1o and γ8 subunits in the expressed channel, a fusion of the cDNAs for GRIA1o and CACNG8 was used. Following Shi et al (2009) “The stoichiometry of AMPA receptors and TARPs varies by neuronal cell type.” Neuron 62(5): 633-640), the C-terminus of the cDNA for GRIA1o was fused to the N-terminus of the cDNA for γ8. The linker sequence was QQQQQQQQQQEFAT. Channels expressed with this construct appear to have similar properties to channels formed by co-expression of GRIA1o with an excess of CACNG8 (Shi et al. 2009). A clonal cell line in HEK293 cells stably expressing this construct, with a geneticin selection marker, was generated for use in this assay.
Cell expressing the GRIA1o-CACNG8 fusion construct were grown in a monolayer in 96- or 384-well microtiter plates. They were washed with assay buffer (135 mM NaCl, 4 mM KCl, 3 mM CaCl2, 1 mM MgCl2, 5 mM glucose, 10 mM HEPES, pH 7.4, 300 mOs) using a Biotek EL405 plate washer. The cells were then loaded with a calcium-sensitive dye (Calcium-5 or Calcium-6, Molecular Devices) and the test compounds at a range of concentrations. Calcium flux following the addition of 15 μM glutamate was monitored using a Molecular Devices FLIPR Tetra.
The fluorescence in each well was normalized to the fluorescence of negative and positive control wells. The negative control wells had no added compounds, and the positive control wells had been incubated with 10 μM CP465022 (a non-subtype-selective AMPA receptor antagonist) (Lazzaro et al. (2002). “Functional characterization of CP-465,022, a selective, noncompetitive AMPA receptor antagonist.” Neuropharmacology 42(2): 143-153). The responses to glutamate as functions of the test compound concentrations were fitted to a four-parameter logistic function. The fitted parameter corresponding to the midpoint was taken to be the potency of inhibition of the compound. The data in Table 4 below illustrates the observed potency for the compounds described herein. pIC50 refers to the negative log of the IC50 in molar.

Chain of GluA1o-γ8 (P42261 other isoform, or with tags, fused parts or gaps): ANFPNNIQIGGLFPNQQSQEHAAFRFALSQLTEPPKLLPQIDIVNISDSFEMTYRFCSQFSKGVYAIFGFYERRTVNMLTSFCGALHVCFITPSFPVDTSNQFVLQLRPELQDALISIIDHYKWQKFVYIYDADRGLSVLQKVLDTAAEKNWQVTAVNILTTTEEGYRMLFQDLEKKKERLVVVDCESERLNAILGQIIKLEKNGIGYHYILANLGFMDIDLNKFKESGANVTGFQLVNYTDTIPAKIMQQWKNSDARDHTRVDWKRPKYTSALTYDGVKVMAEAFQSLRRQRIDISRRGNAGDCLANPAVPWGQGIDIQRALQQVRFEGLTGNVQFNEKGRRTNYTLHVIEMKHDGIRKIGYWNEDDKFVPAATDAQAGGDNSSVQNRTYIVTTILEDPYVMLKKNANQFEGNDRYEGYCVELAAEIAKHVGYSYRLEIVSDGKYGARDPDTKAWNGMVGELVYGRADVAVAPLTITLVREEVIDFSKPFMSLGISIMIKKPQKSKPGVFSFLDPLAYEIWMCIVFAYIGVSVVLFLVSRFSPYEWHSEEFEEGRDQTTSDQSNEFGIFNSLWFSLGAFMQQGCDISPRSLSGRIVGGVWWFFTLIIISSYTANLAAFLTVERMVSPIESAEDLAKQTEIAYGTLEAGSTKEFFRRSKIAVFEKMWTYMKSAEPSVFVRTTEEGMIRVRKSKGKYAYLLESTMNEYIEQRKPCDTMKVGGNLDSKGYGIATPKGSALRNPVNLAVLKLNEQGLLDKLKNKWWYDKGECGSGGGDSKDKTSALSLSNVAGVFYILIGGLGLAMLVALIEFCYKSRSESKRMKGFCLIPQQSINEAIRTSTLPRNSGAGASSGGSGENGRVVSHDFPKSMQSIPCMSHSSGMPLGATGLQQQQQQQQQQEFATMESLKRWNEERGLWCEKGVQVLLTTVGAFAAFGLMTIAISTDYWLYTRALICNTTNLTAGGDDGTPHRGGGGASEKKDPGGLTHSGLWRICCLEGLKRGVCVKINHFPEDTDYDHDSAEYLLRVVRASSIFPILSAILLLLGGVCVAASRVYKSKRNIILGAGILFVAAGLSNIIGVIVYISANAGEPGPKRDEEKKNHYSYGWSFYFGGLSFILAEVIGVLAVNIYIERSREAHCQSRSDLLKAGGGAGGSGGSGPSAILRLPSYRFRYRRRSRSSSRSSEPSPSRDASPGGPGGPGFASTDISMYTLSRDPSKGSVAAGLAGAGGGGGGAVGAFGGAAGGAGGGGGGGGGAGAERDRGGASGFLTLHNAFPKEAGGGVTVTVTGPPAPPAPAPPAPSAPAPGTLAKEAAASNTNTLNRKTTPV

SMILES | pIC50
COc1ccn2nc(C(F)(F)F)nc2c1-c1cc(C)c2[nH]ncc2c1 [Example 29, 7-Methoxy-8-(7-methyl-1H-indazol-5-yl)-2-(trifluoromethyl)-[1,2,4]triazolo[1,5-a]pyridine] | 7.6
FC(F)(F)c1ccn2nc(C3CC3)nc2c1-c1cc(Cl)c2[nH]ncc2c1 [Example 30, 8-(7-Chloro-1H-indazol-5-yl)-2-cyclopropyl-7-(trifluoromethyl)-[1,2,4]triazolo[1,5-a]pyridine] | 9.8
Cc1cc(-c2c(C(F)(F)F)ccn3nc(C4CC4)nc23)cc2cn[nH]c12 [Example 31, 2-Cyclopropyl-8-(7-methyl-1H-indazol-5-yl)-7-(trifluoromethyl)-[1,2,4]triazolo[1,5-a]pyridine] | 9.7
Cc1nc2c(-c3cc(Cl)c4[nH]ncc4c3)c(C(F)(F)F)ccn2n1 [Example 32, 8-(7-Chloro-1H-indazol-5-yl)-2-methyl-7-(trifluoromethyl)-[1,2,4]triazolo[1,5-a]pyridine] | 8.3
Cc1nc2c(-c3cc(C)c4[nH]ncc4c3)c(C(F)(F)F)ccn2n1 [Example 33, 2-Methyl-8-(7-methyl-1H-indazol-5-yl)-7-(trifluoromethyl)-[1,2,4]triazolo[1,5-a]pyridine] | 7.9
CCc1nc2c(-c3cc(Cl)c4[nH]ncc4c3)c(C(F)(F)F)ccn2n1 [Example 34, 8-(7-Chloro-1H-indazol-5-yl)-2-ethyl-7-(trifluoromethyl)-[1,2,4]triazolo[1,5-a]pyridine] | 9.4
CCc1nc2c(-c3cc(C)c4[nH]ncc4c3)c(C(F)(F)F)ccn2n1 [Example 35, 2-Ethyl-8-(7-methyl-1H-indazol-5-yl)-7-(trifluoromethyl)-[1,2,4]triazolo[1,5-a]pyridine] | 8.8
CCc1nc2c(-c3cc(C)c4c(c3)CC(=O)N4)c(C(F)(F)F)ccn2n1 [Example 36, 5-[2-Ethyl-7-(trifluoromethyl)-[1,2,4]triazolo[1,5-a]pyridin-8-yl]-7-methyl-indolin-2-one] | 8.7
CC(C)c1nc2c(-c3cc(Cl)c4[nH]ncc4c3)c(C(F)(F)F)ccn2n1 [Example 37, 8-(7-Chloro-1H-indazol-5-yl)-2-isopropyl-7-(trifluoromethyl)-[1,2,4]triazolo[1,5-a]pyridine] | 9.9
Cc1cc(-c2c(C(F)(F)F)ccn3nc(C(C)C)nc23)cc2cn[nH]c12 [Example 38, 2-Isopropyl-8-(7-methyl-1H-indazol-5-yl)-7-(trifluoromethyl)-[1,2,4]triazolo[1,5-a]pyridine] | 8.7
Cc1cc(-c2c(C(F)(F)F)ccn3nc(C(C)C)nc23)cc2c1NC(=O)C2 [Example 39, 5-[2-Isopropyl-7-(trifluoromethyl)-[1,2,4]triazolo[1,5-a]pyridin-8-yl]-7-methyl-indolin-2-one] | 9.2
Cc1ccn2nc(C(C)C)nc2c1-c1cc(C)c2[nH]ncc2c1 [Example 40, 2-Isopropyl-7-methyl-8-(7-methyl-1H-indazol-5-yl)-[1,2,4]triazolo[1,5-a]pyridine] | 6.9
FC(F)(F)c1nc2c(-c3cc(Cl)c4[nH]ncc4c3)c(Cl)ccn2n1 [Example 41, 7-Chloro-8-(7-chloro-1H-indazol-5-yl)-2-(trifluoromethyl)-[1,2,4]triazolo[1,5-a]pyridine] | 9.0
Fc1ccc(-c2ccn3nc(C(F)(F)F)nc3c2-c2cc(F)c3[nH]ncc3c2)cc1 [Example 42, 7-(4-Fluorophenyl)-8-(7-fluoro-1H-indazol-5-yl)-2-(trifluoromethyl)-[1,2,4]triazolo[1,5-a]pyridine] | 9.0
Fc1ccc(-c2ccn3nc(C(F)(F)F)nc3c2-c2cc(Cl)c3[nH]ncc3c2)cc1 [Example 43, 7-(4-Fluorophenyl)-8-(7-chloro-1H-indazol-5-yl)-2-(trifluoromethyl)-[1,2,4]triazolo[1,5-a]pyridine] | 11.0
Cc1cc(-c2c(-c3ccc(F)cc3)ccn3nc(C(F)(F)F)nc23)cc2cn[nH]c12 [Example 44, 7-(4-Fluorophenyl)-8-(7-methyl-1H-indazol-5-yl)-2-(trifluoromethyl)-[1,2,4]triazolo[1,5-a]pyridine] | 10.5
Fc1ccc(-c2ccn3nc(C(F)(F)F)nc3c2-c2ccc3[nH]nc(F)c3c2)cc1 [Example 45, 8-(3-Fluoro-1H-indazol-5-yl)-7-(4-fluorophenyl)-2-(trifluoromethyl)-[1,2,4]triazolo[1,5-a]pyridine] | 7.6
Cc1cc(-c2c(-c3ccc(F)cc3)ccn3nc(C(F)F)nc23)cc2cn[nH]c12 [Example 46, 2-(Difluoromethyl)-7-(4-fluorophenyl)-8-(7-methyl-1H-indazol-5-yl)-[1,2,4]triazolo[1,5-a]pyridine] | 10.5
COCc1nc2c(-c3cc(C)c4[nH]ncc4c3)c(-c3ccc(F)cc3)ccn2n1 [Example 47, 7-(4-Fluorophenyl)-2-(methoxymethyl)-8-(7-methyl-1H-indazol-5-yl)-[1,2,4]triazolo[1,5-a]pyridine] | 8.7
Cc1cc(-c2c(-c3ccc(F)cc3)ccn3nc(C4CC4)nc23)cc2cn[nH]c12 [Example 48, 2-Cyclopropyl-7-(4-fluorophenyl)-8-(7-methyl-1H-indazol-5-yl)-[1,2,4]triazolo[1,5-a]pyridine] | 10.1

The remaining lines, values ahead:

pIC50 | SMILES
10.5 | Cc1cc(-c2c(C(C)C)ccn3nc(C(F)(F)F)nc23)cc2cn[nH]c12 [Example 49, 7-Isopropyl-8-(7-methyl-1H-indazol-5-yl)-2-(trifluoromethyl)-[1,2,4]triazolo[1,5-a]pyridine]
7.2 | Cc1ccn2cc(C(F)(F)F)nc2c1-c1ccc2[nH]ncc2c1 [Example 50, 8-(1H-Indazol-5-yl)-7-methyl-2-(trifluoromethyl)imidazo[1,2-a]pyridine]
7.2 | Cc1ccn2cc(C(F)(F)F)nc2c1-c1cc(F)c2c(c1)CC(=O)N2 [Example 51, 7-Fluoro-5-[7-methyl-2-(trifluoromethyl)imidazo[1,2-a]pyridin-8-yl]indolin-2-one]
8.0 | Cc1ccn2cc(C(F)(F)F)nc2c1-c1cc(C)c2[nH]ncc2c1 [Example 52, 7-Methyl-8-(7-methyl-1H-indazol-5-yl)-2-(trifluoromethyl)imidazo[1,2-a]pyridine]
7.5 | Cc1ccn2cc(C(C)(C)C)nc2c1-c1cc(C)c2[nH]ncc2c1 [Example 53, 2-tert-Butyl-7-methyl-8-(7-methyl-1H-indazol-5-yl)imidazo[1,2-a]pyridine]
7.1 | Cc1cc(-c2c(C)ccn3cc(C(C)(C)C)nc23)cc2c1NC(=O)C2 [Example 54, 5-(2-tert-Butyl-7-methyl-imidazo[1,2-a]pyridin-8-yl)-7-methyl-indolin-2-one]
7.4 | Cc1cc(-c2c(C)ccn3cc(-c4ccccc4)nc23)cc2c1NC(=O)C2 [Example 55, 7-Methyl-5-(7-methyl-2-phenyl-imidazo[1,2-a]pyridin-8-yl)indolin-2-one]
7.9 | Cc1ccn2cc(-c3ccccc3)nc2c1-c1cc(C)c2[nH]ncc2c1 [Example 56, 7-Methyl-8-(7-methyl-1H-indazol-5-yl)-2-phenyl-imidazo[1,2-a]pyridine]
7.6 | Cc1ccn2cc(C3CC3)nc2c1-c1cc(C)c2[nH]ncc2c1 [Example 57, 2-Cyclopropyl-7-methyl-8-(7-methyl-1H-indazol-5-yl)imidazo[1,2-a]pyridine]
7.8 | COc1ccn2cc(C(F)(F)F)nc2c1-c1cc(C)c2c(c1)CC(=O)N2 [Example 58, 5-[7-Methoxy-2-(trifluoromethyl)imidazo[1,2-a]pyridin-8-yl]-7-methyl-indolin-2-one]
8.1 | COc1ccn2cc(C(F)(F)F)nc2c1-c1cc(C)c2[nH]ncc2c1 [Example 59, 7-Methoxy-8-(7-methyl-1H-indazol-5-yl)-2-(trifluoromethyl)imidazo[1,2-a]pyridine]
9.0 | Cc1cc(-c2c(Cl)ccn3cc(C(F)(F)F)nc23)cc2cn[nH]c12 [Example 60, 7-Chloro-8-(7-methyl-1H-indazol-5-yl)-2-(trifluoromethyl)imidazo[1,2-a]pyridine]
